As a reminder, the MIC50 is the lowest concentration that inhibits either 50% of growth or 50% of the strains tested, depending on the study.

In brackets after ≈: the same amount, converted by molar mass. Activity calls are given as the source filed them. The calls are words filed in the database; no cut-off is given here. Where only a bound is given, the exact number is not on record here.

The subject of test [1] is Candida albicans. Put plainly: Antifungal activity against Candida albicans SC5314 assessed as inhibition of fungal growth incubated for 24 hrs by microdilution assay. It counts as functional.
In test [2] the test system is Candida albicans. Put plainly: Synergistic antifungal activity against Candida albicans SC5314 assessed as inhibition of fungal growth incubated for 24 hrs in presence of fluconazole by microdilution assay. It counts as functional. (Broth dilution looks for growth in wells or tubes with falling amounts of substance.)
Test [3] has as its system Candida albicans. Put plainly: Synergistic antifungal activity against FLC-resistant Candida albicans SC5314 assessed as inhibition of fungal growth incubated for 24 hrs in presence of fluconazole by microdilution assay. It counts as functional.
Test [4] has as its system Candida albicans. Put plainly: Synergistic antifungal activity against Candida albicans SC5314 assessed as fractional inhibitory concentration index incubated for 24 hrs in presence of fluconazole by microdilution assay. It is filed as functional.
Test [5] concerns Candida albicans. Put plainly: Synergistic antifungal activity against FLC-resistant Candida albicans SC5314 assessed as fractional inhibitory concentration index incubated for 24 hrs in presence of fluconazole by microdilution assay. It is filed as functional.
In test [6] the test system is Candida albicans. Put plainly: Antifungal activity against FLC-resistant Candida albicans SC5314 assessed as inhibition of fungal growth incubated for 24 hrs by microdilution assay. It is filed as functional.
The subject of test [7] is Candida albicans. Put plainly: Antifungal activity against FLC-resistant Candida albicans SC5314 assessed as inhibition of fungal growth at 3 ug/ml incubated for 48 hrs by time-kill assay. It counts as functional, organism-based. As to conditions: dose 3.0 µg/ml.
For test [8], the system named is Cell membrane. Put plainly: Induction of […] membrane permeabilization in Candida albicans SC5314 by measuring red fluorescence at 3 ug/ml incubated for 16 to 24 hrs by propyl iodide dye based fluorescence microscopic analysis. It counts as subcellular. As to conditions: dose 3.0 µg/ml, time 16-24 hrs.
The subject of test [9] is Candida albicans. Put plainly: Antifungal activity against Candida albicans SC5314 assessed as morphological change at 3 ug/ml incubated for 24 hrs by transmission electron microscopic analysis. It counts as functional, organism-based. As to conditions: dose 3.0 µg/ml.
For test [10], the system named is Candida albicans. Put plainly: Inhibition of mitochondrial function in Candida albicans SC5314 assessed as reduction in ATP production at 3 ug/ml incubated for 16 hrs by chemiluminescence assay. It counts as functional. As to conditions: dose 3.0 µg/ml.
Test [11] has as its system Candida albicans. Put plainly: Antifungal activity against FLC-resistant Candida albicans SC5314 assessed as inhibition of fungal growth at 3 to 9 ug/ml incubated for 48 hrs by time-kill assay. It counts as functional, organism-based. As to conditions: dose 3-9 µg/ml.
Test [12] concerns Candida albicans. Put plainly: Synergistic antifungal activity against FLC-resistant Candida albicans SC5314 assessed as inhibition of fungal growth incubated for 48 hrs in presence of fluconazole by time-kill assay. It counts as functional, organism-based.
Test [13] deals with Candida albicans. Put plainly: Antifungal activity against Candida albicans SC5314 assessed as inhibition of fungal growth at 3 to 9 ug/ml incubated for 24 hrs by crystal violet staining based inverted microscopic analysis. It counts as functional, organism-based. As to conditions: dose 3-9 µg/ml.
Test [14] deals with Candida albicans. Put plainly: Antifungal activity against Candida albicans SC5314 assessed as decrease in mycelial growth at 3 to 9 ug/ml incubated for 24 hrs by crystal violet staining based inverted microscopic analysis. It is filed as functional, organism-based. As to conditions: dose 3-9 µg/ml.
The subject of test [15] is Cell membrane. Put plainly: Induction of […] membrane permeabilization in Candida albicans SC5314 by measuring red fluorescence at 3 to 9 ug/ml incubated for 16 to 24 hrs by propyl iodide dye based fluorescence microscopic analysis. It counts as subcellular. As to conditions: dose 3-9 µg/ml, time 16-24 hrs.
Test [16] deals with Cell membrane. Put plainly: Induction of […] membrane permeabilization in Candida albicans SC5314 by measuring red fluorescence incubated for 16 to 24 hrs in presence of fluconazole by propyl iodide dye based fluorescence microscopic analysis. It is filed as subcellular. As to conditions: time 16-24 hrs.
The test system of test [17] is Candida albicans. Put plainly: Antifungal activity against Candida albicans SC5314 assessed as morphological change at 3 to 9 ug/ml incubated for 24 hrs by transmission electron microscopic analysis. It counts as functional, organism-based. As to conditions: dose 3-9 µg/ml.
Test [18] deals with Candida albicans. Put plainly: Synergistic antifungal activity against Candida albicans SC5314 assessed as leakage of intracellular debris incubated for 24 hrs in presence of fluconazole by transmission electron microscopic analysis. It counts as functional, organism-based.
The subject of test [19] is Candida albicans. Put plainly: Synergistic antifungal activity against Candida albicans SC5314 assessed as appearance of incomplete cell wall structure incubated for 24 hrs in presence of fluconazole by transmission electron microscopic analysis. It counts as functional, organism-based.
Test [20] has as its system Candida albicans. Put plainly: Synergistic antifungal activity against Candida albicans SC5314 assessed as increase in intracellular ROS production incubated for 16 hrs in presence of fluconazole by DCFH-DA staining based ELISA. It counts as functional, organism-based. On the technique in general: An ELISA detects its analyte on a solid surface through an enzyme-linked reagent.

In test [21] the test system is Candida albicans. Put plainly: Synergistic antifungal activity against Candida albicans SC5314 assessed as decrease in intracellular mitochondrial membrane potential incubated for 16 hrs in presence of fluconazole by JC-1 staining based fluorescence assay. It is filed as functional, organism-based.
The subject of test [22] is Candida albicans. Put plainly: Inhibition of mitochondrial function in Candida albicans SC5314 assessed as reduction in ATP production at 3 to 9 ug/ml incubated for 16 hrs by chemiluminescence assay. It is filed as functional. As to conditions: dose 3-9 µg/ml.
Test [23] deals with Candida albicans. Put plainly: Synergistic antifungal activity against Candida albicans SC5314 assessed as reduction in ATP production incubated for 16 hrs in presence of fluconazole by chemiluminescence assay. It counts as functional, organism-based.
Test [24] deals with Cell membrane. Put plainly: Induction of […] membrane permeabilization in Candida albicans SC5314 by measuring red fluorescence incubated for 16 to 24 hrs in presence of fluconazole by propyl iodide dye based multifunctional microplate reader analysis. It is filed as subcellular. As to conditions: time 16-24 hrs.

Turning to `O=C(CCn1ccc2ccc(Br)cc21)NCCNCC(O)COC(Cn1cncn1)c1ccc(F)cc1F` (stereo not given), the MIC50 in [1] is over 200 µg/mL; in test [2], 0.95 µg/mL; in test [3] it was 11.5 µg/mL. For the same compound, the entries for the “fractional inhibitory concentration index (FICI)” value in test [4] and in test [5] were 0.71 and 0.06, respectively.

With `O=C(CCN1CCc2ccccc21)NCCNCC(O)COC(Cn1cncn1)c1ccc(F)cc1F` (stereo not given), the figures for the MIC50 in test [1], in test [2] and in [3] were over 200 µg/mL, 5.84 µg/mL and 42.6 µg/mL, respectively. For the same compound, the “fractional inhibitory concentration index (FICI)” value was determined as 4.34 in [4] and 0.21 in [5].

For `OC(Cn1cncn1)(Cn1cncn1)c1ccc(F)cc1F` [FLUCONAZOLE], the results for the MIC50 in test [1] and in test [6] were 1.35 µg/mL (≈ 4.41 µM) and over 200 µg/mL, respectively. In addition, the outcome in test [7], in test [8] and in test [9] was Active. For the same compound, in [10], the result was inactive.

Consider `COc1ccc2c(c1)N(CCC(=O)NCCNCC(O)COC(Cn1cncn1)c1ccc(F)cc1F)CC2` (stereo not given), for which the MIC50 in [1] is over 200 µg/mL; in test [2] it was 11.6 µg/mL; in test [3], 111 µg/mL. For the same compound, the “fractional inhibitory concentration index (FICI)” value in test [4] is recorded as 8.64; in test [5], 0.56.

As to `O=C(CCN1CCc2cc(Br)ccc21)NCCNCC(O)COC(Cn1cncn1)c1ccc(F)cc1F` (stereo not given), the MIC50 is over 200 µg/mL in test [1], 1.14 µg/mL in test [2] and 2.82 µg/mL in test [3]. The “fractional inhibitory concentration index (FICI)” value stood at 0.85 in [4] and 0.01 in test [5]. Further, the outcome in test [11], in [13], in test [14], in test [15], in [17] and in test [22] was inactive. Also, the Activity result in test [12], in test [16], in test [18], in test [19], in test [20] and in test [21] was “Dose-Dependent Effect” throughout. Moreover, the Activity result in [23] and in test [24] was “Dose-Dependent Effect” in each case.

Regarding `O=C(CCn1ccc2cc(Br)ccc21)NCCNCC(O)COC(Cn1cncn1)c1ccc(F)cc1F` (stereo not given), the MIC50 is over 200 µg/mL in test [1], 0.85 µg/mL in test [2] and 12.9 µg/mL in test [3]. Also, the “fractional inhibitory concentration index (FICI)” value in test [4] came to 0.63; in test [5], 0.06.

In the case of `O=C(CCn1ccc2cc(Cl)ccc21)NCCNCC(O)COC(Cn1cncn1)c1ccc(F)cc1F` (stereo not given), the MIC50 is over 200 µg/mL in test [1], 0.83 µg/mL in test [2] and 18.9 µg/mL in test [3]. Besides, the “fractional inhibitory concentration index (FICI)” value in test [4] is 0.62; in [5], 0.09.

For `O=C(CCn1ccc2ccccc21)NCCNCC(O)COC(Cn1cncn1)c1ccc(F)cc1F` (stereo not given), the MIC50 is over 200 µg/mL in test [1], 8.42 µg/mL in test [2] and 50 µg/mL in test [3]. Further, the “fractional inhibitory concentration index (FICI)” value came out at 6.26 in test [4] and 0.25 in [5].

As for `O=C(CCn1ccc2ccc(Cl)cc21)NCCNCC(O)COC(Cn1cncn1)c1ccc(F)cc1F` (stereo not given), the MIC50 was over 200 µg/mL in test [1], 0.89 µg/mL in test [2] and 20 µg/mL in test [3]. Besides, the “fractional inhibitory concentration index (FICI)” value in test [4] is recorded as 0.66; in test [5] it was 0.1.

As for `O=C(CCN1CCc2ccc(Br)cc21)NCCNCC(O)COC(Cn1cncn1)c1ccc(F)cc1F` (stereo not given), the figures for the MIC50 in [1], in test [2] and in test [3] were over 200 µg/mL, 0.6 µg/mL and 8.92 µg/mL, respectively. In addition, the “fractional inhibitory concentration index (FICI)” value in [4] is given as 0.44; in test [5], 0.04.

Regarding `O=C(CCN1CCc2ccc(F)cc21)NCCNCC(O)COC(Cn1cncn1)c1ccc(F)cc1F` (stereo not given), the results for the MIC50 in test [1], in test [2] and in test [3] were over 200 µg/mL, 2.68 µg/mL and 18.9 µg/mL, respectively. In addition, the results for the “fractional inhibitory concentration index (FICI)” value in test [4] and in [5] were 1.99 and 0.09, respectively.

Turning to `CC1Cc2ccccc2N1CCC(=O)NCCNCC(O)COC(Cn1cncn1)c1ccc(F)cc1F` (stereo not given), the figures for the MIC50 in test [1], in test [2] and in [3] were over 200 µg/mL, 9.22 µg/mL and 67.7 µg/mL, respectively. Further, the “fractional inhibitory concentration index (FICI)” value is reported as 6.85 in [4] and 0.34 in test [5].

In the case of `O=C(CCN1CCc2ccc(Cl)cc21)NCCNCC(O)COC(Cn1cncn1)c1ccc(F)cc1F` (stereo not given), the MIC50 was over 200 µg/mL in test [1], 0.35 µg/mL in test [2] and 9.22 µg/mL in [3]. Further, the “fractional inhibitory concentration index (FICI)” value was determined as 0.26 in test [4] and 0.05 in test [5].

As for `COc1ccc2ccn(CCC(=O)NCCNCC(O)COC(Cn3cncn3)c3ccc(F)cc3F)c2c1` (stereo not given), the MIC50 in test [1] is over 200 µg/mL; in test [2], 1.87 µg/mL; in test [3], 52.5 µg/mL. For the same compound, the “fractional inhibitory concentration index (FICI)” value is 1.39 in test [4] and 0.26 in [5].

In the case of `O=C(CCN1CCc2cc(Cl)ccc21)NCCNCC(O)COC(Cn1cncn1)c1ccc(F)cc1F` (stereo not given), the MIC50 in [1] is over 200 µg/mL; in [2], 1.77 µg/mL; in test [3], 14 µg/mL. For the same compound, the “fractional inhibitory concentration index (FICI)” value in test [4] is reported as 1.31; in test [5] it was 0.07.

As to `O=C(CCn1ccc2ccc(F)cc21)NCCNCC(O)COC(Cn1cncn1)c1ccc(F)cc1F` (stereo not given), the results for the MIC50 in test [1], in test [2] and in [3] were over 200 µg/mL, 0.79 µg/mL and 33.9 µg/mL, respectively. The “fractional inhibitory concentration index (FICI)” value in test [4] was determined as 0.59; in test [5], 0.17.

`Cc1ccc2c(c1)CCN2CCC(=O)NCCNCC(O)COC(Cn1cncn1)c1ccc(F)cc1F` (stereo not given): the MIC50 in test [1] is over 200 µg/mL; in test [2], 2.03 µg/mL; in test [3], 10.2 µg/mL. Moreover, the “fractional inhibitory concentration index (FICI)” value worked out at 1.51 in test [4] and 0.05 in [5].

Values taken from ChEMBL document CHEMBL5385972, “New azole derivatives linked to indole/indoline moieties combined with FLC against drug-resistant Candida albicans” (2024).
